Data from patent US9585933B2, “Therapeutic use of peptide inhibitors of NADPH oxidase; aerosolization as a delivery mechanism” (University of Pittsburgh—Of the Commonwealth System of …, priority 2011, dated 2017).
Where no end group is shown, it is not given here.

Target: T1, Nox2 oxidase (COS-Nox2 lysate: Nox2, p22phox, p47phox, p67phox) (Homo sapiens, UniProt P14598)
T1 construct: host or cells: COS 7 cells, stably transfected; cell lysate used
T1 sequence (P14598 1-390): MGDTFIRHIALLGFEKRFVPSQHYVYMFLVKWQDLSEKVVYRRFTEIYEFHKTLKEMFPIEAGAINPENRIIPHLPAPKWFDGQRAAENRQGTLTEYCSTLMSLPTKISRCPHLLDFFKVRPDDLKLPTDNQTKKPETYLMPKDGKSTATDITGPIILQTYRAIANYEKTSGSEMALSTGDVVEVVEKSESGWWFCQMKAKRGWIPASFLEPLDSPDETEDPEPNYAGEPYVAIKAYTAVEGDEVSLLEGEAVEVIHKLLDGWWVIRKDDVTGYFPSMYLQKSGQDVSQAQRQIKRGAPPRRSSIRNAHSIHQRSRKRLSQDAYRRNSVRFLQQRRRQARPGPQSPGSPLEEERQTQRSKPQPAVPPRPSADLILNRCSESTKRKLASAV
Assay: Cell-free SOD-inhibitable cytochrome c reduction assay, O2- production in COS-Nox2 lysates
Format: biochemical
Settings: for rate of O2- generation, SOD-inhibitable reduction of cytochrome c: 0 μM control 1.33±0.1
Experimental: To test this hypothesis, the inhibitory activity of Nox2ds was assessed in cell-free assays using reconstituted systems expressing either Nox1, 2 or 4 oxidase. Nox 2 oxidase was recapitulated by stably transfecting COS 7 cells with Nox2, p22phox, p47phox, and p67phox (aka COS-Nox2). Nox1 oxidase was obtained by transfecting COS 7 cells with Nox1, p22phox, NOXO1 and NOXA1 (COS-Nox1), and Nox 4 oxidase was regenerated by transfection of COS 7 cells with Nox4 and p22phox. […] Our new data support selectivity of Nox2ds peptide in differentiating the contribution of Nox2 vs. Nox1 and Nox4 NADPH oxidase and its potential clinical use in ameliorating cardiopulmonary diseases.
COS-Nox2: COS 7 cells transfected with p22^phox, Nox2, p47^phox and p67^phox (M. Dinauer, Indiana University). (Price M O, McPhail L C, Lambeth J D, Han C H, Knaus U G, Dinauer M C. Blood. 2002 Apr. 15; 99(8):2653-61.)
Superoxide (O2^−) production was measured in COS-Nox1 and COS-Nox2 lysates by determining the rate of O2^− dismutase (SOD) inhibitable cytochrome c reduction and by electron paramagnetic resonance (EPR).
COS-Nox2, COS-Nox1/NOXO1/NOXA1, and COS-22 cells were suspended to a concentration of 5×10^7 cells/ml in ice-cold disruption buffer (8 mM potassium, sodium phosphate buffer, pH 7.0, 131 mM NaCl, 340 mM sucrose, 2 mM NaN3, 5 mM MgCl2, 1 mM EGTA, 1 mM EDTA, and protease inhibitor cocktail). The cells were lysed by five freeze/thaw cycles and passed through a 30-gauge needle five times to further lyse the cells. Cell disruption was confirmed by phase-contrast microscopy. The cell lysate was centrifuged at 1000 g for 10 min at 4° C. to remove unbroken cells, nuclei, and debris. Throughout all these procedures, extreme care was taken to maintain the lysate at a temperature close to 0° C. Superoxide production was calculated from the initial linear rate (over 10 min) of SOD-inhibitable cytochrome c reduction quantified at 550 nm using the extinction coefficient of 21.1 mM-1 cm-1 (Biotek Synergy 4 hybrid multimode microplate reader). The oxidase assay buffer consisted of 65 mM sodium phosphate buffer (pH 7.0), 1 mM EGTA, 10 μM FAD, 1 mM MgCl2, 2 mM NaN3, and 0.2 mM cytochrome c. The components of the cell-free system were added in the following order: oxidase assay buffer, cell lysate (5×10^5 cell equivalents/well), and Nox2ds/Scrmb Nox2ds peptides at a final concentration of 0.1, 0.3, 1.0, 3.0, and 10 μM. The plates were placed on an orbital shaker to mix contents for 5 min at 120 movements/min at room temperature. LIDS, an established lipid activator of phagocyte cell-free systems, was added at a concentration of 130 μM, and O2^− production was initiated by the addition of 180 μM NADPH. The concentration of Nox2ds peptide that caused 50% inhibition of O2^− production (IC50) in COS-Nox2 cell lysates was calculated by Prism 5 (GraphPad Software, La Jolla, Calif., USA).
Cytochrome C Assay. FIG. 3A. Rate of O2^− production in COS-Nox2 lysates pretreated with Nox2ds or scrambled control (Scrmb Nox2ds). O2^− production was initiated by the addition of NADPH and measured by the SOD-inhibitable cytochrome c reduction for 10 min.

CSTRVRRQL-NH2 [Nox2ds, CSTRVRRQL]
rate of O2- generation, SOD-inhibitable reduction of cytochrome c (0.1 μM peptide): 1.36±0.1 nmol O2^−/min/10^7 lysate-cell equivalents
rate of O2- generation, SOD-inhibitable reduction of cytochrome c (0.3 μM peptide): 1.05±0.2 nmol O2^−/min/10^7 lysate-cell equivalents
rate of O2- generation, SOD-inhibitable reduction of cytochrome c (1 μM peptide): 0.83±0.1 nmol O2^−/min/10^7 lysate-cell equivalents
rate of O2- generation, SOD-inhibitable reduction of cytochrome c (3 μM peptide): 0.82±0.1 nmol O2^−/min/10^7 lysate-cell equivalents
rate of O2- generation, SOD-inhibitable reduction of cytochrome c (10 μM peptide): 0.54±0.1 nmol O2^−/min/10^7 lysate-cell equivalents
inhibition of Nox2-oxidase O2- production (in words) (cytochrome c assay): concentration-dependently inhibited
